Measurements from ChEMBL document CHEMBL2073745, “Disruption of the mouse mdr1a P-glycoprotein gene leads to a deficiency in the blood-brain barrier and to increased sensitivity to drugs” (Cell, 1994).

Biological target: ATP-dependent translocase ABCB1 (Mus musculus, UniProt P21447)
Assay: TP_TRANSPORTER: increase in plasma concentration in mdr1a(-/-) mouse
Type: functional, organism-based
Conditions: in vivo

ATP-dependent translocase ABCB1, sequence (P21447 whole entry): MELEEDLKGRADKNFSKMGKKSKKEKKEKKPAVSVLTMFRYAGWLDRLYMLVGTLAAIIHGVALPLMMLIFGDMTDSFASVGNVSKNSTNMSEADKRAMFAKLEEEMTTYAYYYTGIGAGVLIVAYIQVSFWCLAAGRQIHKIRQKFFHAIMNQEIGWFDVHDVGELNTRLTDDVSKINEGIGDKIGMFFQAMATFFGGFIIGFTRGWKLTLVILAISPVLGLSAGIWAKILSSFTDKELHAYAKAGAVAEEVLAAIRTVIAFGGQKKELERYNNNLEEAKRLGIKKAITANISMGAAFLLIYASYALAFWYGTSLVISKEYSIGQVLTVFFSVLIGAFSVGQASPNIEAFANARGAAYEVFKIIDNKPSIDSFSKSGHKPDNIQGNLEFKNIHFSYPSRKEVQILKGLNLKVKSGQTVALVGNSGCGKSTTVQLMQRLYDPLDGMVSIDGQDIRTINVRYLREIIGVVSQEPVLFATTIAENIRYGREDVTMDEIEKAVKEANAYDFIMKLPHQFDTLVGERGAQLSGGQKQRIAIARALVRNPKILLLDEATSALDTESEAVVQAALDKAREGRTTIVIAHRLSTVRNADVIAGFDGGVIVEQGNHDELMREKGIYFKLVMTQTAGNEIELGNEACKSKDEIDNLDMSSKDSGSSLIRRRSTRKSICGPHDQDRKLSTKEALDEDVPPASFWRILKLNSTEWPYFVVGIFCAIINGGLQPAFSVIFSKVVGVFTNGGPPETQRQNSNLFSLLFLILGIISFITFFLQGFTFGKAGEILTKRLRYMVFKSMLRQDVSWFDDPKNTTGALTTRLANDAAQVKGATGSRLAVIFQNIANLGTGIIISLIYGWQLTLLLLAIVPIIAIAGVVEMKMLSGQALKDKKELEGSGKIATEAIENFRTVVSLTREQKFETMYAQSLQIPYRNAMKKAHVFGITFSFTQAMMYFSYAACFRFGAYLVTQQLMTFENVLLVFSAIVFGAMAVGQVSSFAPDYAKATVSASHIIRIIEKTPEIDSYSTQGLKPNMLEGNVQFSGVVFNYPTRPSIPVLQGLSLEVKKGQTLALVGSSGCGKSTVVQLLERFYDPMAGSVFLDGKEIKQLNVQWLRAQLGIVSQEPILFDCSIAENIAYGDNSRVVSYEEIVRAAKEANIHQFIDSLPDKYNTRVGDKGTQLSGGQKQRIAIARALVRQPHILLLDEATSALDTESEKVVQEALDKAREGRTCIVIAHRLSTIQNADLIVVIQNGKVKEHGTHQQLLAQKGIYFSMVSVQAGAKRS

IVERMECTIN
Activity: substrate [+]
